From patent US20060281763A1, “Carboxamide inhibitors of TGFbeta” (priority 2005, published 2006) come the findings set out here.

As a reminder, the IC50 is the midpoint of a concentration-inhibition curve.

Molecules are shown by their SMILES.

The target in the experiment is T1, TGFβ R1 (Homo sapiens, UniProt P36897).
T1 sequence (P36897 34-503): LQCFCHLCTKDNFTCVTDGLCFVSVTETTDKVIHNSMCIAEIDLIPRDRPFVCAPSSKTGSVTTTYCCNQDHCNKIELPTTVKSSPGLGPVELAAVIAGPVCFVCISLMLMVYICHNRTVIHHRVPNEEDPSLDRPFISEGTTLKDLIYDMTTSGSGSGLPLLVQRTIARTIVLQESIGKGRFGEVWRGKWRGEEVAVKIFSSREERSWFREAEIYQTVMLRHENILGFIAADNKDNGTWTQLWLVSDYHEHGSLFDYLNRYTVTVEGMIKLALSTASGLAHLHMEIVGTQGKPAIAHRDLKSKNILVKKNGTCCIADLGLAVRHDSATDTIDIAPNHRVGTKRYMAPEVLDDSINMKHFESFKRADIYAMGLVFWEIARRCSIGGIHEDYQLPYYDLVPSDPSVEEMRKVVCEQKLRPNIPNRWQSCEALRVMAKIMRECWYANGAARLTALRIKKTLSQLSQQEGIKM
Nature of the experiment: TGFβ R1 autophosphorylation protocol (33P-ATP, phosphocellulose filter plate). The class given is biochemical. The note with it: 10 uM ATP, 170 nM TGFβ R1, room temperature 20 minutes, read-out: IC50 for Kinase Inhibition. The method in brief:
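Incorporation of 33P from γ-33P-ATP (10 uM ATP final) into the kinase itself (170 nM) measured by phosphocellulose capture and scintillation counting. Incubation 20 min at room temperature in 20 mM MOPS pH 7 with […]; final DMSO ≤1%.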
For the compound `CC(C)c1cnc(-c2cc(Cl)ccc2F)nc1Nc1ccncc1C(=O)NCCCN1CCCC[C@H]1C(=O)N1CCCC1` [Compound 183, 4-[2-(5-Chloro-2-fluoro-phenyl)-5-isopropyl-pyrimidin-4-ylamino]-N-{3-[2-(pyrrolidine-1-carbonyl)-piperidin-1-yl]-propyl}-nicotinamide], the IC50 was 21 nM. For `CNC(=O)[C@@H]1CCCCN1CCCNC(=O)c1cnccc1Nc1nc(-c2cc(Cl)ccc2F)ncc1C(C)C` [Compound 184, 4-[2-(5-Chloro-2-fluoro-phenyl)-5-isopropyl-pyrimidin-4-ylamino]-N-[3-(2-methylcarbamoyl-piperidin-1-yl)-propyl}-nicotinamide], the 50% inhibitory concentration (IC50) worked out at 12 nM. For `COc1cnc(-c2cc(Cl)ccc2F)nc1Nc1ccncc1C(=O)NCCNCCOC1O[C@@H](CO)[C@H](O)[C@@H](O)[C@@H]1O` (stereo partly shown) [Compound 185] the value was 9 nM. With `COCCCNC(=O)c1cnccc1Nc1nc(-c2cc(Cl)ccc2F)ncc1C(C)C` [Compound 186, 4-[2-(5-Chloro-2-fluoro-phenyl)-5-isopropyl-pyrimidin-4-ylamino]-N-(3-methoxy-propyl)-nicotinamide] the figure was 11 nM; with `CCOCCCNC(=O)c1cnccc1Nc1nc(-c2cc(Cl)ccc2F)ncc1C(C)C` [Compound 187, 4-[2-(5-Chloro-2-fluoro-phenyl)-5-isopropyl-pyrimidin-4-ylamino]-N-(3-ethoxy-propyl)-nicotinamide], 12 nM; with `CC(C)c1cnc(-c2cc(Cl)ccc2F)nc1Nc1ccncc1C(=O)NCCCO` [Compound 188, 4-[2-(5-Chloro-2-fluoro-phenyl)-5-isopropyl-pyrimidin-4-ylamino]-N-(3-hydroxy-propyl)-nicotinamide], 5 nM. For `CC(C)OCCCNC(=O)c1cnccc1Nc1nc(-c2cc(Cl)ccc2F)ncc1C(C)C` [Compound 189, 4-[2-(5-Chloro-2-fluoro-phenyl)-5-isopropyl-pyrimidin-4-ylamino]-N-(3-isopropoxy-propyl)-nicotinamide] the value was 74 nM. With `CC(C)c1cnc(-c2cc(Cl)ccc2F)nc1Nc1ccncc1C(=O)NCCCN1CCC[C@H]1C(=O)N1CCCC1` [Compound 190, 4-[2-(5-Chloro-2-fluoro-phenyl)-5-isopropyl-pyrimidin-4-ylamino]-N-{3-[2-(pyrrolidine-1-carbonyl)-pyrrolidine-1-yl]-propyl}-nicotinamide], the half-maximal inhibitory concentration (IC50) was 9 nM. For `CC(C)c1cnc(-c2cc(Cl)ccc2F)nc1Nc1ccncc1C(=O)NCCCN1C[C@H](O)C[C@H]1C(=O)N1CCCC1` [Compound 191, 4-[2-(5-Chloro-2-fluoro-phenyl)-5-isopropyl-pyrimidin-4-ylamino]-N-{3-[4-hydroxy-2-(pyrrolidine-1-carbonyl)-pyrrolidin-1-yl]-propyl}-nicotinamide] the value was 13 nM. With `CCOP(=O)(OCC)OC(C)(C)CNC(=O)c1cnccc1Nc1nc(-c2cc(Cl)ccc2F)ncc1C(C)C` [Compound 192] the figure was 122 nM; with `CC(C)c1cnc(-c2cc(Cl)ccc2F)nc1Nc1ccncc1C(=O)NC(CO)CO` [Compound 193, 4-[2-(5-Chloro-2-fluoro-phenyl)-5-isopropyl-pyrimidin-4-ylamino]-N-(2-hydroxy-1-hydroxymethyl-ethyl)-nicotinamide], 27 nM. As to `CC(C)c1cnc(-c2cc(Cl)ccc2F)nc1Nc1ccncc1C(=O)NCCC(=O)N1CCC[C@H]1C(=O)N(C)C` [Compound 194, 4-[2-(5-Chloro-2-fluoro-phenyl)-5-isopropyl-pyrimidin-4-ylamino]-N-[3-(2-dimethyl-carbamoyl-pyrrolidin-1-yl)-3-oxo-propyl]-nicotinamide], the half-inhibitory concentration (IC50) was 41 nM. For `COCC(COC)NC(=O)c1cnccc1Nc1nc(-c2cc(Cl)ccc2F)ncc1C(C)C` [Compound 195, 4-[2-(5-Chloro-2-fluoro-phenyl)-5-isopropyl-pyrimidin-4-ylamino]-N-(2-methoxy-1-methoxymethyl-ethyl)-nicotinamide] the value was 424 nM; for `CC(C)c1cnc(-c2cc(Cl)ccc2F)nc1Nc1cc[n+]([O-])cc1C(=O)NCC(C)(C)O` [Compound 196, 4-[2-(5-Chloro-2-fluoro-phenyl)-5-isopropyl-pyrimidin-4-ylamino]-N-(2-hydroxy-2-methyl-propyl)-1-oxy-nicotinamide], 245 nM. For `COc1cnc(-c2cc(Cl)ccc2F)nc1Nc1cc[n+]([O-])cc1C(=O)NC[C@H](C)O` [Compound 197, 4-[2-(5-Chloro-2-fluoro-phenyl)-5-methoxy-pyrimidin-4-ylamino]-N-(2-hydroxy-propyl)-1-oxy-nicotinamide] the value was 675 nM; for `CC(O)CNC(=O)c1c[n+]([O-])ccc1Nc1nc(-c2cc(Cl)ccc2F)ncc1C(C)C` (stereo not shown) [Compound 198, 4-[2-(5-Chloro-2-fluoro-phenyl)-5-isopropyl-pyrimidin-4-ylamino]-N-(2-hydroxy-propyl)-1-oxy-nicotinamide], 148 nM; for `COc1cnc(-c2cc(Cl)ccc2F)nc1Nc1ccncc1C(=O)NCCCCCNC(=O)CCCC[C@H]1SC[C@@H]2NC(=O)N[C@@H]21` [Compound 202, 4-[2-(5-Chloro-2-fluoro-phenyl)-5-methoxy-pyrimidin-4-ylamino]-N-{5-[5-(2-oxo-hexahydro-thieno[3,4-d]imidazol-6-yl)-pentanoylamino]-pentyl]-nicotinamide], 54 nM. Take `COc1cnc(-c2cc(Cl)ccc2F)nc1Nc1ccncc1C(=O)N1CCOCC1` [Compound 203, {4-[2-(5-Chloro-2-fluoro-phenyl)-5-methoxy-pyrimidin-4-ylamino]-pyridin-3-yl}-morpholin-4-yl-methanone]: the half-maximal inhibitory concentration (IC50) was found to be 176 nM.

Consider `CC(C)c1cnc(-c2cc(Cl)ccc2F)nc1Nc1ccncc1C(=O)NC[C@H](C)OC(=O)[C@H](C)N` [Compound 204, 2-Amino-propionic acid 2-({4-[2-(5-chloro-2-fluoro-phenyl)-5-isopropyl-pyrimidin-4-ylamino]-pyridine-3-carbonyl}-amino)-1-methyl-ethyl ester], for which the half-maximal inhibitory concentration (IC50) came to 25 nM. With `CC(C)c1cnc(-c2cc(Cl)ccc2F)nc1Nc1ccncc1C(=O)NC[C@H](C)OC(=O)[C@@H](C)N` [Compound 205, 2-Amino-propionic acid 2-({4-[2-(5-chloro-2-fluoro-phenyl)-5-isopropyl-pyrimidin-4-ylamino]-pyridine-3-carbonyl}-amino)-1-methyl-ethyl ester] the figure was 10 nM. Take `CC(C)c1cnc(-c2cc(Cl)ccc2F)nc1Nc1ccncc1C(=O)NC[C@H](C)OC(=O)[C@@H](N)C(C)C` [Compound 206, 2-Amino-3-methyl-butyric acid 2-({4-[2-(5-chloro-2-fluoro-phenyl)-5-isopropyl-pyrimidin-4-ylamino]-pyridine-3-carbonyl}-amino)-1-methyl-ethyl ester]: the IC50 came to 72 nM. For `CC(C)c1cnc(-c2cc(Cl)ccc2F)nc1Nc1ccncc1C(=O)NC[C@H](C)OC(=O)[C@H](N)C(C)C` [Compound 207, 2-Amino-3-methyl-butyric acid 2-({4-[2-(5-chloro-2-fluoro-phenyl)-5-isopropyl-pyrimidin-4-ylamino]-pyridine-3-carbonyl}-amino)-1-methyl-ethyl-ester] the value was 17 nM; for `CC(C)c1cnc(-c2cc(Cl)ccc2F)nc1Nc1ccncc1C(=O)N1CCN(C)CC1` [Compound 208, {4-[2-(5-Chloro-2-fluoro-phenyl)-5-isopropyl-pyrimidin-4-ylamino]-pyridin-3-yl}-(4-methyl-piperazin-1-yl)-methanone], 1620 nM. Consider `CC(C)c1cnc(-c2cc(Cl)ccc2F)nc1Nc1ccncc1C(=O)N1CC[C@H](N)C1` [Compound 209, (3-Amino-pyrrolidin-1-yl)-{4-[2-(5-chloro-2-fluoro-phenyl)-5-isopropyl-pyrimidin-4-ylamino]-pyridin-3-yl}-methanone], for which the IC50 turned out to be 68 nM. With `CC(C)c1cnc(-c2cc(Cl)ccc2F)nc1Nc1ccncc1C(=O)N1CC[C@@H](F)C1` [Compound 210, {4-[2-(5-Chloro-2-fluoro-phenyl)-5-isopropyl-pyrimidin-4-ylamino]-pyridin-3-yl}-(3-fluoro-pyrrolidin-1-yl)-methanone] the figure was 121 nM; with `COc1cnc(-c2cc(Cl)ccc2F)nc1Nc1ccncc1C(=O)N1CC[C@H](N)C1` [Compound 211, (3-Amino-pyrrolidin-1-yl)-{4-[2-(5-chloro-2-fluoro-phenyl)-5-methoxy-pyrimidin-4-ylamino]-pyridin-3-yl)-methanone], 258 nM. With `O=C(c1cnccc1Nc1nc(-c2cc(Cl)ccc2F)ncc1C1CCCC1)N1CC[C@H](O)C1` [Compound 212, {4-[2-(5-chloro-2-fluoro-phenyl)-5-cyclopentyl-pyrimidin-4-ylamino]-pyridin-3-yl}(3-hydroxy-pyrrolidin-1-yl)-methanone] the figure was 673 nM; with `CN1CCN(C(=O)c2cnccc2Nc2nc(-c3cc(Cl)ccc3F)ncc2C2CCCC2)CC1` [Compound 213, {4-[2-(5-Chloro-2-fluoro-phenyl)-5-cyclopentyl-pyrimidin-4-ylamino]-pyridin-3-yl}-(4-methyl-piperazin-1-yl)-methanone], 12900 nM.
